For orientation: IC50 means the concentration that gives 50% inhibition.

Molecules are shown by their SMILES. Where a name gives a salt, the structure may show the parent alone.

This note sets out measurements from patent US12583866B2, “Pyrido[2,3-b][1,4]oxazines or tetrahydropyrido[2,3-b][1,4]oxazepines as IAP antagonists” (BEIGENE, LTD., priority 2020, dated 2026).

Assay [1] addresses T1, recombinant human XIAP-BIR3 protein (Homo sapiens, UniProt P98170).
T1 construct: recombinant human XIAP-BIR3 protein; purchased Reaction biology APT-11-374
Put plainly: Recombinant human XIAP-BIR3 biochemical assay (HTRF, peptide displacement). The conditions noted are these: 3.7 nM XIAP-BIR3, 7.6 nM AbuRPF-K(5-Fam)-NH2 peptide, read-out: Protein binding IC50 (nM) XIAP. The method, then: III. Recombinant Human XIAP-BIR3 Biochemical Assay
(§1) Compounds disclosed herein were tested for blocking of recombinant human XIAP-BIR3 protein (Cat: APT-11-374, Reaction biology) with its peptide in an assay based on Homogeneous Time Resolved Fluorescence. 3.7 nM recombinant human XIAP-BIR3 protein was pre-incubated with a serial dilution of compounds disclosed herein (maximum concentration is 10 uM, 4-fold serially diluted, 10 points) at room temperature for 1 hour in an assay buffer containing 20 mM HEPES, pH 7.5, 50 mM NaCl, 0.005% Tween-20, 1 mM DTT. Then 7.6 nM AbuRPF-K(5-Fam)-NH2 (Cat: 709702, GL Biochem) was added to plate incubated at room temperature for 1 hour. Mab Anti-6His Tb cryptate Gold (Cat: 61HI2TLB, Cisbio Bioassays) was added to plate and further incubated at room temperature for 1 hour. The HTRF signals (ex337 nm, em520 nm/490 nm) were read on BMG PHERAstar FS instrument. The inhibition percentage of XIAP-BIR3 interaction with its peptide in presence of increasing concentrations of compounds was calculated based on the ratio of fluorescence at 520 nm to that at 490 nm. The IC50 for each compound was derived from fitting the data to the four-parameter logistic equation by Dotmatics and summarized in table 1.
For orientation: Time-resolved FRET reads energy transfer from a long-lived donor to a nearby acceptor.

Assay [2] concerns the target T2, recombinant human cIAP2-BIR3 protein (Homo sapiens, UniProt Q13489).
T2 construct: recombinant human cIAP2-BIR3 protein; purchased Reaction biology APT-11-372
Nature of the assay: Recombinant human c-IAP2-BIR3 biochemical assay (HTRF, peptide displacement). To be noted: 3.7 nM cIAP2-BIR3, 3.7 nM AbuRPF-K(5-Fam)-NH2 peptide, read-out: Protein binding IC50 (nM) c-IAP2. How it is done:
II. Recombinant Human c-IAP2-BIR3 Biochemical Assay
as §1, with “cIAP2-BIR3” for “XIAP-BIR3”, “APT-11-372,” for “APT-11-374,”, “3.7” for “7.6”

For assay [3], the target named is T3, recombinant human cIAP1-BIR3 protein (Homo sapiens, UniProt Q13490).
T3 construct: recombinant human cIAP1-BIR3 protein; purchased Reaction biology APT-11-370
T3 sequence (Q13490 253-363 limits assumed): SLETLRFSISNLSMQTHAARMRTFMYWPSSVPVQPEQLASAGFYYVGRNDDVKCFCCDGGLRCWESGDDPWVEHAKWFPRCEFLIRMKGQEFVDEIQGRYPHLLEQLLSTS
Nature of the assay: Recombinant human c-IAP1-BIR3 biochemical assay (HTRF, peptide displacement). The conditions noted are these: 1.2 nM cIAP1-BIR3, 3 nM AbuRPF-K(5-Fam)-NH2 peptide, read-out: Protein binding IC50 (nM) c-IAP1. The method, then: I. Recombinant human c-IAP1-BIR3 biochemical assay
as §1, with “cIAP1-BIR3” for “XIAP-BIR3”, “APT-11-370,” for “APT-11-374,”, “1.2” for “3.7”, “3” for “7.6”, “AbuRPF-K (5-Fam)-NH2” for “AbuRPF-K(5-Fam)-NH2”

T2 sequence (Q13489 238-349 limits assumed): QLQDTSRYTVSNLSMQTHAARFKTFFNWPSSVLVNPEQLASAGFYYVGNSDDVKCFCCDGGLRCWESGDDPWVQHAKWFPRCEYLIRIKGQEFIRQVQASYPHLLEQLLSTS
T1 sequence (P98170 241-356 limits assumed): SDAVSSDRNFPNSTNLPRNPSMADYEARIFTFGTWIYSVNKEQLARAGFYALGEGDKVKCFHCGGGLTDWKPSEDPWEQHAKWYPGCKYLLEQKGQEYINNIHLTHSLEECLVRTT

In the case of `C[C@@H]1CN(CC(=O)N2CCOc3ncc(Cc4ccc(F)cc4)cc32)[C@@H](CN2CCOC[C@H]2C)CN1` [Compound 2, 1-(7-(4-fluorobenzyl)-2,3-dihydro-1H-pyrido[2,3-b][1,4]oxazin-1-yl)-2-((2R,5R)-5-methyl-2-(((R)-3-methylmorpholino)methyl)piperazin-1-yl)ethan-1-one formate], the IC50 was found to be 24 nM in assay [1], 2.5 nM in assay [2] and 0.9 nM in assay [3].
The like results for `CC(C)OC[C@H]1COc2ncc(Cc3ccc(F)cc3)cc2N1C(=O)CN1C[C@@H](C)NC[C@@H]1CN1[C@H](C)COC[C@H]1C` [Compound 39, 2-((2R,5R)-2-(((3R,5R)-3,5-dimethylmorpholino)methyl)-5-methylpiperazin-1-yl)-1-((S)-7-(4-fluorobenzyl)-2-(isopropoxymethyl)-2,3-dihydro-1H-pyrido[2,3-b][1,4]oxazin-1-yl)ethan-1-one] were, in that order, 28 nM, 0.27 nM and 0.15 nM.
The like results for `C[C@@H]1CN(CC(=O)N2c3cc(Cc4ccc(F)cc4)c(C(=O)N(C)C)nc3OC[C@@H]2C)[C@@H](CN2[C@H](C)COC[C@H]2C)CN1` [Example 80, (S)-1-(2-((2R,5R)-2-(((3R,5R)-3,5-dimethylmorpholino)methyl)-5-methylpiperazin-1-yl)acetyl)-7-(4-fluorobenzyl)-N,N,2-trimethyl-2,3-dihydro-1H-pyrido[2,3-b][1,4]oxazine-6-carboxamide] were, in that order, 4.9 nM, 0.3 nM and 0.22 nM.
For `CC(C)OC[C@@H]1COCCN1C[C@H]1CN[C@H](C)CN1CC(=O)N1c2cc(Cc3ccc(F)cc3)c(CO)nc2OC[C@@H]1C` [Compound 59] the same measures were 7.8 nM, 0.67 nM and 0.26 nM.
Turning to `C[C@@H]1CN(CC(=O)N2c3cc(Cc4ccc(F)cc4F)c(C(N)=O)nc3OC[C@@H]2C)[C@@H](CN2[C@H](C)COC[C@H]2C)CN1` [Example 83, (S)-7-(2,4-difluorobenzyl)-1-(2-((2R,5R)-2-(((3R,5R)-3,5-dimethylmorpholino)methyl)-5-methylpiperazin-1-yl)acetyl)-2-methyl-2,3-dihydro-1H-pyrido[2,3-b][1,4]oxazine-6-carboxamide], the IC50 in assay [1] was found to be 7.2 nM; in assay [2] it was 0.4 nM; in assay [3], 0.2 nM.
For `C[C@@H]1CN(CC(=O)N2c3cc(Cc4ccc(F)cc4)c(CO)nc3OC[C@@H]2C)[C@@H](CN2[C@H](C)CN(C)C[C@H]2C)CN1` [Compound 105, 1-((S)-7-(4-fluorobenzyl)-6-(hydroxymethyl)-2-methyl-2,3-dihydro-1H-pyrido[2,3-b][1,4]oxazin-1-yl)-2-((2R,5R)-5-methyl-2-(((2R,6R)-2,4,6-trimethylpiperazin-1-yl)methyl)piperazin-1-yl)ethan-1-one] the same measures were 11.3 nM, 0.35 nM and 0.28 nM.
Take `C[C@@H]1CN(CC(=O)N2c3cc(Cc4ccc(F)cc4)c(CN4CC(O)C4)nc3OC[C@@H]2C)[C@@H](CN2[C@H](C)COC[C@H]2C)CN1` [Compound 114]: the IC50 turned out to be 7.7 nM in assay [1], 0.36 nM in assay [2] and 0.19 nM in assay [3].
The like results for `COC[C@H]1COc2ncc(Cc3ccc(F)cc3)cc2N1C(=O)CN1C[C@@H](C)NC[C@@H]1CN1[C@H](C)COC[C@H]1C` [Compound 34, 2-((2R,5R)-2-(((3R,5R)-3,5-dimethylmorpholino)methyl)-5-methylpiperazin-1-yl)-1-((S)-7-(4-fluorobenzyl)-2-(methoxymethyl)-2,3-dihydro-1H-pyrido[2,3-b][1,4]oxazin-1-yl)ethan-1-one] were, in that order, 23 nM, 0.32 nM and 0.25 nM.
The like results for `CCOC[C@H]1COc2ncc(Cc3ccc(F)cc3)cc2N1C(=O)CN1C[C@@H](C)NC[C@@H]1CN1[C@H](C)COC[C@H]1C` [Compound 36] were, in that order, 50 nM, 0.8 nM and 0.42 nM.
For `C[C@@H]1CN(CC(=O)N2c3cc(Cc4ccc(F)cc4)cnc3OC[C@@H]2c2ccccc2)[C@@H](CN2CCOC[C@H]2C)CN1` [Compound 45, 1-((S)-7-(4-fluorobenzyl)-2-phenyl-2,3-dihydro-1H-pyrido[2,3-b][1,4]oxazin-1-yl)-2-((2R,5R)-5-methyl-2-(((R)-3-methylmorpholino)methyl)piperazin-1-yl)ethan-1-one] the same measures were 8.5 nM, 0.65 nM and 0.34 nM.
As to `C[C@@H]1CN(CC(=O)N2c3cc(Cc4ccc(F)cc4)c(C(=O)N4CC[C@H](F)C4)nc3OC[C@@H]2C)[C@@H](CN2[C@H](C)COC[C@H]2C)CN1` [Compound 100, 2-((2R,5R)-2-(((3R,5R)-3,5-dimethylmorpholino)methyl)-5-methylpiperazin-1-yl)-1-((S)-7-(4-fluorobenzyl)-6-((S)-3-fluoropyrrolidine-1-carbonyl)-2-methyl-2,3-dihydro-1H-pyrido[2,3-b][1,4]oxazin-1-yl)ethan-1-one], the results for the half-inhibitory concentration (IC50) in assay [1], in assay [2] and in assay [3] were 4.2 nM, 0.44 nM and 0.17 nM, respectively.
The like results for `CCNC(=O)c1nc2c(cc1Cc1ccc(F)cc1)N(C(=O)CN1C[C@@H](C)NC[C@@H]1CN1[C@H](C)COC[C@H]1C)[C@@H](C)CO2` [Example 65, (S)-1-(2-((2R,5R)-2-(((3R,5R)-3,5-dimethylmorpholino)methyl)-5-methylpiperazin-1-yl)acetyl)-N-ethyl-7-(4-fluorobenzyl)-2-methyl-2,3-dihydro-1H-pyrido[2,3-b][1,4]oxazine-6-carboxamide] were, in that order, 4.4 nM, 0.44 nM and 0.22 nM.
`C[C@@H]1CN(CC(=O)N2c3cc(Cc4ccc(F)cc4)c(C(=O)N[C@@H]4CCOC4)nc3OC[C@@H]2C)[C@@H](CN2[C@H](C)COC[C@H]2C)CN1` [Example 78, (S)-1-(2-((2R,5R)-2-(((3R,5R)-3,5-dimethylmorpholino)methyl)-5-methylpiperazin-1-yl)acetyl)-7-(4-fluorobenzyl)-2-methyl-N—((R)-tetrahydrofuran-3-yl)-2,3-dihydro-1H-pyrido[2,3-b][1,4]oxazine-6-carboxamide]: the IC50 turned out to be 3.2 nM in assay [1], 0.31 nM in assay [2] and 0.17 nM in assay [3].
For `C[C@@H]1CN(CC(=O)N2CCOc3nc(C4(O)CC4)c(Cc4ccc(F)cc4)cc32)[C@@H](CN2CCOC[C@H]2C)CN1` [Compound 21, 1-(7-(4-fluorobenzyl)-6-(1-hydroxycyclopropyl)-2,3-dihydro-1H-pyrido[2,3-b][1,4]oxazin-1-yl)-2-((2R,5R)-5-methyl-2-(((R)-3-methylmorpholino)methyl)piperazin-1-yl)ethan-1-one] the same measures were 41 nM, 5.75 nM and 2.6 nM.
